According to patent US7618697B2, “Carboxylic acid esters of zosteric acid for prevention of biofouling” (Ciba Specialty Chemicals Corporation, priority 2005, dated 2009):

System: Staphyloccus aureus
Test: Microbial antiadhesion assay on coated PMMA test pins
Type: cell-based
Settings: adhering microbes as percent of control pins (acrylate film former only = 100%), test concentration 0.50% in Glascol LS26 acrylate film former, 60 min in S. aureus suspension, immunological detection
Description: Microbial Antiadhesion Assay
According to the method of Nature Medicine Vol. 6, No. 8, 1053-1056, Zosterate esters are dissolved in a solution containing an acrylate polymeric film former (Glascol LS26, 4.6% active). Test pins made of PMMA are dipped into the solutions, incubated for 20 minutes and allowed to dry. The test pins are incubated in a suspension of Staphyloccus aureus for 60 min, then rinsed with PBS buffer. The microbial cells adhering to the pin are detected in an immunological assay using specific antibodies against the test strain which are then detected […]. The results are reported as a percent relative to the control pins (treated with acrylate film former only), a value of 100% represents the value observed on the control pins; a value of 42% represents a 0.42× the amount of microbes found on the pins treated with acrylate film former only.

SMILES	Results on PMMA Based on Control
CCCCOC(=O)/C=C/c1ccc(OS(=O)(=O)O)cc1 [1-Butyl zosterate]	70%
CCC(C)OC(=O)/C=C/c1ccc(OS(=O)(=O)O)cc1 (stereo not drawn) [2-Butyl zosterate]	42%
COC(=O)/C=C/c1ccc(OS(=O)(=O)O)cc1 [Methyl zosterate, Methyl Zosterate]	28%
